Measurements as given in ChEMBL document CHEMBL4425184, “C15-methoxyphenylated 18-deoxy-herbimycin A analogues, their in vitro anticancer activity and heat shock protein 90 binding affinity” (Bioorg Med Chem Lett, 2016).
pIC50: −log10 of the molar value.

Columns and labels:
[1] = system: A-375; assay: Antiproliferative activity against human A375 assessed as reduction in cell viability measured after 96 hrs by MTT assay; type: functional, cell-based; conditions: A-375, 96 h
[2] = molecular target: T1, Heat shock protein HSP 90-alpha (Homo sapiens, UniProt P07900); assay: Displacement of fluorescent labelled-VER00051001 from N-terminal ATP-binding site of human recombinant HSP90A expressed in Escherichia coli measured after 32 hrs by fluorescence polarization assay
[3] = system: BGC-823; assay: Antiproliferative activity against human BGC823 assessed as reduction in cell viability measured after 96 hrs by MTT assay; type: functional, cell-based; conditions: BGC-823, 96 h
[4] = system: A2780; assay: Antiproliferative activity against human A2780 assessed as reduction in cell viability measured after 96 hrs by MTT assay; type: functional, cell-based; conditions: A2780, 96 h
[5] = molecular target: T1, Heat shock protein HSP 90-alpha; assay: Displacement of fluorescent labelled-VER00051001 from N-terminal ATP-binding site of human recombinant HSP90A expressed in Escherichia coli measured after 29 hrs by fluorescence polarization assay
[6] = molecular target: T1, Heat shock protein HSP 90-alpha; assay: Displacement of fluorescent labelled-VER00051001 from N-terminal ATP-binding site of human recombinant HSP90A expressed in Escherichia coli measured after 20 hrs by fluorescence polarization assay
[7] = system: MCF7; assay: Antiproliferative activity against human MCF7 assessed as reduction in cell viability measured after 96 hrs by MTT assay; type: functional, cell-based; conditions: MCF7, 96 h
[8] = molecular target: T1, Heat shock protein HSP 90-alpha; assay: Displacement of fluorescent labelled-VER00051001 from N-terminal ATP-binding site of human recombinant HSP90A expressed in Escherichia coli measured after 44 hrs by fluorescence polarization assay
[9] = system: SW1990; assay: Antiproliferative activity against human SW1990 assessed as reduction in cell viability measured after 96 hrs by MTT assay; type: functional, cell-based; conditions: SW1990, 96 h
[10] = molecular target: T1, Heat shock protein HSP 90-alpha; assay: Displacement of fluorescent labelled-VER00051001 from N-terminal ATP-binding site of human recombinant HSP90A expressed in Escherichia coli measured after 48 hrs by fluorescence polarization assay
[11] = system: HCT-116; assay: Antiproliferative activity against human HCT116 assessed as reduction in cell viability measured after 96 hrs by MTT assay; type: functional, cell-based; conditions: HCT-116, 96 h

SMILES	pIC50 [1]	pIC50 [2]	pIC50 [3]	pIC50 [4]	pIC50 [5]	pIC50 [6]	pIC50 [7]	pIC50 [8]	pIC50 [9]	pIC50 [10]	pIC50 [11]
COc1ccc([C@H]2c3cccc(c3O)NC(=O)/C(C)=C/C=C\[C@H](OC)[C@@H](OC(N)=O)/C(C)=C/[C@H](C)[C@@H](OC)[C@@H](OC)C[C@@H]2C)cc1	5.59	7.00	5.19	5.62	6.99	6.92	5.02	7.01	5.47	7.01	5.20
COc1ccc([C@H]2c3cccc(c3O)NC(=O)/C(C)=C/C=C\[C@H](OC)[C@@H](OC(N)=O)/C(C)=C/[C@H](C)[C@@H](O)[C@@H](OC)C[C@@H]2C)cc1	6.35	7.25	6.20	6.33	7.23	7.19	6.35	7.25	6.10	7.28	6.36
COc1ccc([C@H]2c3cccc(c3O)NC(=O)/C(C)=C/CC[C@H](OC)[C@@H](OC(N)=O)/C(C)=C/[C@H](C)[C@@H](OC)[C@@H](OC)C[C@@H]2C)cc1	< 4.70	< 6.00	< 4.70	< 4.70	< 6.00	< 6.00	< 4.70	< 6.00	< 4.70	< 6.00	< 4.70
COc1ccc([C@H]2c3cccc(c3O)NC(=O)/C(C)=C/CC[C@H](OC)[C@@H](OC(N)=O)/C(C)=C/[C@H](C)[C@@H](O)[C@@H](OC)C[C@@H]2C)cc1	< 4.70	< 6.00	< 4.70	< 4.70	< 6.00	< 6.00	< 4.70	< 6.00	< 4.70	< 6.00	< 4.70
CO[C@H]1/C=C\C=C(/C)C(=O)NC2=CC(=O)C=C(C2=O)[C@H](OC)[C@@H](C)C[C@H](OC)[C@H](O)[C@@H](C)/C=C(\C)[C@@H]1OC(N)=O [HERBIMYCIN C]	5.61	7.73	5.40	5.52	7.71	7.65	5.29	7.74	5.06	7.77	5.03
